Here are results for five substances from patent US8461299B2, “Peptide capable of binding to immunoglobulin” (MMT Co., Ltd., priority 2007, dated 2013).

In assay [1] the test system is binding between human C1q protein and alkaline phosphatase (ALP)-labeled human immunoglobulin (IgG). Description: Inhibition of the binding between an immunoglobulin and C1q (C1q spotted on nitrocellulose membrane, ALP-labeled IgG detection). The following applies: peptide 500 μg/ml; 400 ng human C1q per spot; ALP-labeled human IgG diluted 1000-fold; room temperature, one hour. An excerpt:
It was investigated whether or not the 9 residue-peptide CKVPGLYYF (SEQ ID NO: 2) considered to be necessary for the binding between C1q and an immunoglobulin (IgG) inhibits the binding between C1q and an immunoglobulin. Peptide (R2) having the amino acid sequence of SEQ ID NO: 2, peptide (R1) having a shorter amino acid sequence than this peptide, PGLYYF (SEQ ID NO: 1), as well as peptide (R3) having the amino acid sequence SGKFTCKVPGLYYFT (SEQ ID NO: 3), peptide (R4) having the amino acid sequence FTCKVPGLYYFTYHA (SEQ ID NO: 4), peptide (R5) having the amino acid sequence STGKFTCKVPGLYYF (SEQ ID NO: 5), and peptide (R6) having the amino acid sequence CKVPGLYYFVYHASH (SEQ ID NO: 7), which contain the amino acid sequence indicated by SEQ ID NO: 2, were prepared by outsourcing to GL Biochem (Shanghai). Each peptide was dissolved in dimethylsulfoxide so as to reach a concentration of 10 mg/ml and stored.
Human C1q protein (manufactured by Carbiochem) was dissolved in 10 mM HEPES, 300 mM NaCl and 40% glycerol (pH 7.2) to prepare a 200 μg/ml human C1q protein solution.
The human C1q protein solution was spotted at 2 μl (400 ng) each onto a 5 mm×15 mm size nitrocellulose membrane (Hybond C; manufactured by Amersham), which was air-dried at room temperature for approximately one hour. The nitrocellulose membrane was soaked in TBS, incubated for 5 minutes, and blocked at room temperature for one hour using TBS (20 mM Tris-HCl pH 7.5, 150 mM NaCl) containing 5% blocking agent (Amersham ECL blocking reagent; manufactured by GE Healthcare). After a slight wash in TBS, the membrane was soaked in 20 μl of a mixed solution of alkaline phosphatase (ALP)-labeled human immunoglobulin (IgG) (manufactured by BECKMAN COULTER) diluted 1000-fold in TBS and each peptide so as to reach a concentration of 500 μg/ml, and let it react at room temperature for one hour. After a slight wash in TTBS solution (TBS added with Tween 20 to a final concentration of 0.05%), the membrane was washed in the same solution for 10 minutes, shaking three times.
After the nitrocellulose membrane was washed slightly in ALP coloring buffer (Tris-HCl containing 100 mM NaCl, 5 mM MgCl2, pH 9.5), it was soaked in 30 μl ALP coloring buffer containing BCIP/NBT solution (manufactured by Promega), and colored at room temperature for 10 minutes. Upon obtaining a staining image, the nitrocellulose membrane was soaked in a sufficient amount of distilled water to wash away the coloring buffer. After washing the nitrocellulose membrane was air-dried and the staining image was captured using Multi Gauge (FUJIFILM). […]

Assay [2] concerns monoclonal antibody cocktail-induced arthritis mice. Description: Arthritis inhibitory action on an arthritis-induced mouse-2 (clinical score, general state, body weight). The format is in vivo. To be noted: 10 mg/kg intraperitoneally twice daily from day 0 for 14 days. Here is the method: The arthritis inhibitory action of the peptides indicated in Example 2 as R1, R2 and R5 was examined using monoclonal antibody cocktail-induced arthritis mice. An arthritis-inducing monoclonal antibody cocktail was intravenously administered at 2 mg/individual, and three days later, LPS was intraperitoneally administered at 50 μg/individual to the mice to induce arthritis. For each peptide, from the day the arthritis-inducing monoclonal antibody cocktail was administered (day 0), continuous administration was carried out at 10 mg/kg each, twice daily, for 14 days, and the arthritis inhibitory action was examined by clinical scoring. Note that the experiments were carried out by similar methods to Example 3 (1).
Based on the animal body weight, the required amount of each peptide was calculated. A solution was prepared with a 0.5% methyl cellulose solution so as to reach a concentration of 1 mg/ml, and was stored refrigerated.
With the day the arthritis-inducing monoclonal antibody cocktail was administered as day 0, the animal's body weight was measured on day 0, 3, 6, 9, 12 and 14 during the test period. General state observation was carried out daily.
The body weight was measured on the day prior to starting administration and randomly assigned with a grouping software so that the average body weight value of each group was approximately the equal. To twenty 7 week-old mice, an arthritis-inducing monoclonal antibody cocktail were intravenously administered at 2 mg/individual on day 0, and LPS was intraperitoneally administered at 50 μg/individual on day 3.
Each peptide solution was intraperitoneally administered twice daily, in the morning and in the afternoon, from day 0. As a control, 0.5% methyl cellulose solution was intraperitoneally administered twice daily from day 0. For administration, a syringe needle (26G, Terumo) and a syringe barrel (1.0 ml capacity, Terumo) were used. The dosage was 10 ml/kg. […]

Assay [3] deals with Type III allergic (Arthus) reaction-induced rat. Description: Type III allergic (Arthus) reaction model, Evans blue dye leakage. The format is in vivo. Here is the method:
The test for peptide R1, R2 and R5 using 64 male rats of the Slc:Wistar strain, which were 7 weeks old was carried out in twice, i.e. for each administration method (intraperitoneal administration and tail vein administration). Acclimation was carried out by giving normal solid chow CRF-1 for 9 days or longer. The day prior to administration, the dorsal hair of the animal was shaved, and on the administration day, a solution of OVA+Evans blue dye mix was administered into the tail vein. Each peptide solution was administered, 30 minutes after administration of a solution of OVA+Evans blue dye mix if administered intraperitoneally or 50 minutes after if administered into the tail vein, respectively. Regarding intracutaneous administration of anti-OVA solution, the solution was intradermally administered to the dorsal region of the animal at a dose of 0.1 ml/site, 30 minutes after administration of the test substance in case of intraperitoneal administration or 10 minutes after in case of intravenous administration, to induce locally an Arthus reaction. Four hours after the induction, the animals were euthanized, the blood was removed thoroughly, and then the dorsal skin was removed. The Arthus reaction site on the removed skin was punched out, and the Evans blue dye was extracted from this skin overnight. The amount of dye leaked was quantified by measuring the absorbance for Evans blue dye with a spectrophotometer and using a calibration curve (note that, regarding experimental methods used in Example 4, reference should be made to H. Okamoto, Y. Iwahisa and M. Terasawa: Suppression of the Arthus reaction by Y-24180, a potent and specific antagonist of platelet-activating factor. Agents Actions, 35: 149-158 (1992)).
The predetermined weighed amounts of each peptide (peptides R1, R2 and R5) were dissolved in physiological saline respectively to obtain a 20 mg/ml solution. A 2 mg/ml solution was prepared by diluting 10-fold a 20 mg/mL solutions with physiological saline. 5 mg/ml solutions were prepared by dissolving each peptide in predetermined weighed amounts in physiological saline to obtain preparation solutions.
A solution of OVA+Evans blue dye mix was administered into the tail vein at 2 ml/kg. Each peptide solution was administered, 30 minutes after administration of the solution of OVA+Evans blue dye mix if administered intraperitoneally or 50 minutes after if administered into the tail vein, respectively. Regarding intracutaneous administration of anti-OVA solution, the solution was intradermally administered to the dorsal region of the animal at a dose of 0.1 ml/site, 30 minutes after administration of the test substance in case of intraperitoneal administration or 10 minutes after in case of intravenous administration, to induce locally an Arthus reaction. Intracutaneous administration was such that there were two PBS sites and two ant-OVA solution sites per animal. Four hours after the induction, the animals were euthanized by decapitation under ether anesthesia, the blood was removed thoroughly, and then the dorsal skin was removed. […]
The skin strip that was punched out with a punch was slit at several locations, soaked in 2 ml of dye extraction solution, and shaken and agitated for 10 minutes. […] The amount of dye leaked was calculated from the dye amount calibration curve.
The group mean values (mean)±standard deviation (SD) were calculated for the body weight measurement values and the amounts of dye leaked. […]

Assay [4] deals with monoclonal antibody cocktail-induced arthritis mice (BALB/c Cr Slc (SPF)). Description: Arthritis inhibitory action on an arthritis-induced mouse-1 (clinical score). Type of assay: in vivo. Here is the method:
Using monoclonal antibody cocktail-induced arthritis mice (BALB/c Cr Slc (SPF)), the arthritis inhibitory action of the peptide indicated as R5 in Example 2 was examined. Arthritis was induced by intravenous administration of 2 mg/individual of an arthritis-inducing monoclonal antibody cocktail, followed by intraperitoneal administration of 50 μg/individual of Lipopolysaccharide (LPS) three days later. From the day following LPS administration (day 4) until day 14, 10 mg/kg of peptide. R5 was intraperitoneally administered once daily or twice daily. The positive control agent methotrexate was orally administered once daily at 0.1 mg/kg from day 4. The clinical score of the extremities was measured on even days from day 0 to day 14. Under anesthesia, blood was removed with heparin-containing physiological saline, ice-cold 4% paraformaldehyde solution was continuously injected to perfusion-fix the whole body. After perfusion-fixation subsequent, both hind limbs knee joints (the center of the femur and the center of the tibia were cut; skin and muscles were removed) and heel joints (from the center of the tibia to the toe tips) were excised and further immersion-fixed with 4% paraformaldehyde solution overnight (4° C.). Thereafter, both knee and heel joints were transferred to 50 mM PBS (4° C.), then soft x-ray radiography of the heel articulations were taken from two directions (internal side direction and upper side direction).
Based on the animal body weight, the required amount was calculated for the peptide. A peptide solution was prepared with a 0.5% methyl cellulose solution so as to reach a concentration of 1 mg/ml, and the prepared peptide solution was stored refrigerated. […]
With the day the arthritis-inducing monoclonal antibody cocktail was administered as day 0, the animal's body weight was measured on day 0, 3, 6, 9, 12 and 14 during the test period. […]

Where [5] appears, read: intraperitoneal administration, 10 mg/kg or 100 mg/kg.
[6] abbreviates: tail vein administration, 10 mg/kg.

In the case of “CKAPGLYYF (Immunoglobulin binding peptide) [R10]”, the “inhibition of the binding between C1q and an immunoglobulin (IgG)” value (“inhibition … (IgG)” below) in assay [1] is recorded as “inhibit”.

With “CKVPGLYYF (Immunoglobulin binding peptide) [R2]”, in assay [1], the “inhibition … (IgG)” value is listed as “inhibited”. Besides, the “arthritis inhibitory action (clinical score)” value (“arthritis inhibitory action” below) in assay [2] is recorded as “Arthritis inhibitory action was observed”. Further, the “inhibitory action on immune-complex disease (amount of dye leaked)” value (“inhibitory action … (amount of dye leaked)” for short) in assay [3] (setting [5]) is “clear and sufficient inhibitory action”; in assay [3] (setting [6]), “clear and sufficient inhibitory action”.

On to “PGLYYF (Immunoglobulin binding peptide) [R1]”, for which the “inhibition … (IgG)” value in assay [1] is on record as “inhibited”. Further, the “arthritis inhibitory action” value in assay [2] is “Arthritis inhibitory action was observed”. The “inhibitory action … (amount of dye leaked)” value in assay [3] (setting [5]) was “clear and sufficient inhibitory action”; in assay [3] (setting [6]) it was “clear and sufficient inhibitory action”.

Turning to “STAKFTCKVPGLYYF (Immunoglobulin binding peptide) [R11]”, the “inhibition … (IgG)” value in assay [1] was “inhibit”.

With “STGKFTCKVPGLYYF (Immunoglobulin binding peptide) [R5]”, the “arthritis inhibition (clinical score)” value in assay [4] (10 mg/kg intraperitoneally once daily or twice daily, day 4 until day 14) is “an effect on arthritis inhibition was observed”. Moreover, the “difference in effectiveness between once daily administration and twice daily administration” value in assay [4] (10 mg/kg intraperitoneally, day 4 until day 14) is on record as “no significant difference”. For the same substance, the “level of arthritis inhibition compared with methotrexate” value in assay [4] (peptide 10 mg/kg intraperitoneally, methotrexate 0.1 mg/kg orally once daily from day 4) is “higher than that of methotrexate”. Besides, the “arthritis inhibitory action” value in assay [2] is given as “Arthritis inhibitory action was observed”. Besides, the “inhibitory action … (amount of dye leaked)” value in assay [3] (setting [5]) was “clear and sufficient inhibitory action”.
